From patent US11779565B2, “Small organic molecules for use in the treatment of neuroinflammatory disorders” (THE MEDICAL RESEARCH, INFRASTRUCTURE AND HEALTH SERVICES …, priority 2017, dated 2023)

Key:
BMP-2 = molecular target: T1, BMP-2 (Homo sapiens, UniProt P12643); experiment: ATDC5 cell based HTS bioassay: ALP production stimulated by BMP-2 and heparin; set-up: species or system mouse; conditions: for IC50: inhibition of BMP-2-stimulated ALP in ATDC5 cells, 48 hours, tested at 0.62-10 μM; for inhibition at 2.5 µM: ATDC5 cells, read-out: inhibition of BMP-2 (ALP induction)
T1 construct: purchased R&D Systems
T1 sequence (P12643 283-396): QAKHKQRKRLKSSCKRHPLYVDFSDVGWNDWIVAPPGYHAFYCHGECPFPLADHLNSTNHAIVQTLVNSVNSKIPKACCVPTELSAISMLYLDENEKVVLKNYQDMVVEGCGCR
Experimental: Poly-L-lysine (Sigma-Aldrich) was added to 384-well plates and was removed after 30 min of incubation at RT. An assay medium containing DMEM/F12, 2% FBS, 100 units/ml penicillin, […] streptomycin (Biological industries) was added to each well. […] ATDC5 cells (Sigma-Aldrich) were harvested, re-suspended in assay medium and added to a final concentration of 2000 cells/well. Finally, heparin (Sigma-Aldrich) was added to a final concentration of 2 μg/ml. The cells were incubated for 48 hours at 37° C. with 5% CO2 in a humidified chamber in the presence or absence of potential small molecule inhibitors of BPM-2. After incubation, ALP levels and cell viability were determined using a completely automated protocol. Cells were washed with PBS, lysed using a lysis buffer containing 0.2% Triton X-100 in PBS supplemented with a protease inhibitor cocktail (Sigma-Aldrich) and incubated for 25 min at RT. ALP level was then determined by addition of CDP-Star® chemiluminescent substrate (Sigma-Aldrich) and measurement of luminescence after incubation for 25 min at RT in the dark. Cell viability was finally determined by addition of CellTiter-Glo® reagent (Biological Industries) and luminescence measurement after 10 min of incubation.
An ATDC5 cell based assay for assessing structure-function relationship of BMP-2 and BMP receptor IA was originally described in Keller et al (Nature Structural & Molecular Biology 2004 11, 481-488). In order to screen a large volume of potential therapeutic agents the ATDC5 cell based bioassay for detecting BMP inhibition was adapted for use in high throughput screening. The bioassay is based on the stimulation of alkaline phosphatase (ALP) production in mouse ATDC5 cells by administration of BMP-2 and heparin, and measurement of ALP levels in the presence of the potential inhibitors. […] This was achieved by using CellTiter-Glo® Luminescent Cell Viability Assay for assessing the cells' viability after the luminescent signal by CDP-Star® has faded. The simultaneous assessment of both ALP production and cells' viability was necessary since potentially toxic tested small molecules may lead to reduced ALP levels by cellular cytotoxicity rather than by interference with BMP-2 signaling. […] Particulars of the bioassay are detailed in the Experimental procedures section above.
A library of small molecules (SM) was screened using the High Throughput Screening bioassay described above. About 7600 SMs were screened, from the Maybridge library, which consists of organic “drug-like” compounds, using the pre-plated HitFinder™ Collection. […] The SM were tested at various concentrations, i.e. at 0.62 μM, 1.25 μM, 2.5 μM, 5 μM and 10 μM.

SMAD1/5/8 signaling = SMAD1/5/8 signaling by Western blot in P19 cells; format: cell-based, murine; conditions: 4 h
Experimental: P19 cells were seeded in 6-well-plates (3.5×10^5 cells/well). On the following day, the cells were either untreated or treated with 5×10^−7 M RA, 5 ng/ml BMP-2 or SMs for 4 h. Cells were washed with ice cold PBS, harvested and lysed with ice cold RIPA buffer (Sigma-Aldrich) supplemented with protease inhibitor cocktail and sodium orthovanadate (Na3VO4) as phosphatase inhibitor (Sigma-Aldrich). Protein concentrations were determined using a BCA protein assay kit (Pierce, Rockford, Ill.). Cell lysates (40-60 μg protein) were separated by 4-15% SDS-PAGE gel electrophoresis and then transferred to nitrocellulose membranes at 0.2 A for 2 h. The membranes were blocked at room temperature for 1 h in 5% (w/v) non-fat-dried milk and then incubated with anti-phospho-Smad1/5/9, anti-Smad1 (Cell signaling Technology, Beverly, Mass., USA) and anti-tubulin (Sigma-Aldrich) antibodies at room temperature for 2 h. The membranes were washed and incubated with alkaline phosphatase-conjugated secondary antibody (Jackson Laboratories Immune Research, PA, USA). Signal was detected using enhanced chemiluminescence kit (Clarity, Bio-Rad Laboratories, Richmond, Calif.) and digital images were captured by MicroChemi (DNR Bio-imaging Systems, Jerusalem, Israel). Protein levels were quantified using ImageJ software and normalized to {alpha}-tubulin.
The canonical BMP signal is known to be mediated via SMAD phosphorylation. BMPs transduce signals by binding to complexes of type I and II serine/threonine kinase receptors. Ligand binding induces phosphorylation of the receptors, which then activate canonical signaling via receptor Smads (R-Smads) 1, 5 and 8. R-Smads are phosphorylated by the activated type I receptor. They then complex with Smad4, triggering nuclear translocation. The effect of the SMs on the phosphorylation of the canonical SMAD1/5/8 signaling, induced in P19 cells in response to stimulation with BMP-2, was examined.

RR-EAE mice = experiment: De novo expression of doublecortin (BrdU+DCX+ cells) in SVZ and SGZ of RR-EAE mice; format: in vivo
Excerpt: FIGS. 10A-10B—The effect of SM1, SM7, SM9 and SM6 on de novo expression of neuroblasts marker doublecortin in the SVZ. FIG. 10A—Immunofluorescence images showing the labeling of BrdU and doublecortin (DCX) in the SVZ. Images were obtained using Zeiss 710 confocal microscope, coronal sections. LV, lateral ventricle, SVZ, subventricular zone. Scale bar for images: a, c, e, g, i, k, m, o=100 μm (magnification×10), and images: b, d, f, h, j, 1, n, p=20 μm (magnification×63). FIG. 10B: Quantification of BrdU^+ DOC^+ cells in the SVZ. Analysis was performed using image J software on 3 sections from each mouse (3 mice from each group, total n=9). Values are given as mean±SEM and the results of Student's t-test are represented as *p<0.05.
FIGS. 11A-11B—The effect of SM1, SM7, SM9 and SM6 on de novo expression of doublecortin in the SGZ. FIG. 11A: are immunohistochemical images showing the labeling of BrdU^+DCX^+ cells in the SGZ. Images were obtained using Olympus 8.1 microscope (magnification×10). FIG. 11B: Quantification of BrdU^+DCX^+ cells in the SGZ. Analysis was performed using image J software on 3 sections from each mouse (3 mice from each group, total n=9). Values are given as mean±SEM and the results of Student's t-test are represented as *p<0.05.
RR-EAE induced mice were intraperitoneally injected with 250 μg/mouse (Low-L) or 500 μg/mouse (High-H) of the small molecules SM1, SM7, SM9, SM6, or the corresponding vehicle. The SMs were injected each day starting on day 9 post immunization for 30 days. For immunohistochemical analysis, 3 mice of each group were intraperitoneally injected daily with bromo-2′-deoxyuridine (BrdU) starting from day 9 post immunization for 8 following days.
Next, the amount of BrdU DCX cells in the SGZ of mice was evaluated. FIGS. 11A-11B show immunohistochemical labeling of BrdU DCX cells in mice with EAE after treatment with the SMs or with vehicle.

[1] = high dose (H) 500 μg/mouse i.p. daily from day 9 for 30 days
[2] = low dose (L) 250 μg/mouse i.p. daily from day 9 for 30 days
[3] = low dose (L) 250 μg/mouse i.p. daily

For COC(=O)c1sccc1N/N=C(\C#N)S(=O)(=O)c1cccs1 [SM1, Methyl 3-[(2E)-2-[cyano(thiophen-2-ylsulfonyl)methylidene]hydrazinyl]thiophene-2-carboxylate], the IC50 (BMP-2) was 2.6 µM, the “reduction in p-SMAD/tubulin compared to stimulation with BMP-2 alone” value (“reduction in p-SMAD/tubulin” for short) (SMAD1/5/8 signaling; 2.5 μM) was 24.2% and the “reduction in p-SMAD/tubulin” value (SMAD1/5/8 signaling; 5 μM) was 19.9%. The “BrdU+DCX+ cells in the SVZ vs. vehicle” value (RR-EAE mice; [1]) was “trend for increased induction” and the “BrdU+DCX+ cells in the SVZ vs. vehicle” value (RR-EAE mice; [2]) was “trend for increased induction”.
In the case of O=C(Nc1cccc(C(F)(F)F)c1)c1ccc([N+](=O)[O-])o1 [SM6, N2-[3-(trifluoromethyl)phenyl)-5-nitro-2-furamide], the IC50 (BMP-2) is reported as 9.7 µM, the “BrdU+DCX+ cells in the SVZ vs. vehicle” value (RR-EAE mice; [1]) is reported as “trend for increased induction” and the “BrdU+DCX+ cells in the SGZ vs. vehicle” value (RR-EAE mice; [3]) is reported as “trend for increased”.
With N#Cc1c(O)nsc1Nc1ccccc1C(F)(F)F [SM7, 3-hydroxy-5-[2-(trifluoromethyl)aniline]isothiazole-4-carbonitrile] the inhibition at 2.5 µM (BMP-2) was 47.3%, the IC50 (BMP-2) was 2.2 µM and the “reduction in p-SMAD/tubulin” value (SMAD1/5/8 signaling; 2.5 μM) was 40.0%. The “BrdU+DCX+ cells in the SGZ vs. vehicle” value (RR-EAE mice; [3]) was “trend for increased”.
With CS(=O)(=O)c1noc(-c2ccc(Cl)cc2)c1C#N [SM9, 5-(4-chlorophenyl)-3-methylsulfonyl-1,2-oxazole-4-carbonitrile] the inhibition at 2.5 µM (BMP-2) was 29.1%, the IC50 (BMP-2) was 4.4 µM and the “reduction in p-SMAD/tubulin” value (SMAD1/5/8 signaling; 2.5 μM) was 42.7%. The “BrdU+DCX+ cells in the SGZ vs. vehicle” value (RR-EAE mice; high dose (H) 500 μg/mouse i.p. daily) was “significant increased induction”, the “BrdU+DCX+ cells in the SVZ vs. vehicle” value (RR-EAE mice; [1]) was “trend for increased induction” and the “BrdU+DCX+ cells in the SGZ vs. vehicle” value (RR-EAE mice; [3]) was “trend for increased”. For the same molecule, the “BrdU+DCX+ cells in the SVZ vs. vehicle” value (RR-EAE mice; [2]) was “significant increase”.
